The source of these data is patent US9630964B2, “Fluoro-9-methyl-β-carbolines” (priority 2013, dated 2017).

The subject of series [1] is human neuroblastoma cells (SH-SY5Y). The experiment in a line: Differentiation of human neuroblastoma cells (SH-SY5Y), morphological examination. It counts as cell-based. The conditions noted are these: SH-SY5Y. As for the experimental part: The SH-SY5Y cell line was obtained from the German collection of microorganisms and cell cultures—DSMZ, Braunschweig. The cells were cultivated in MEM (Minimum essential medium, Life Technologies) with 10% FCS (fetal calf serum, Biochrom AG) and penicillin/streptomycin (Biochrom AG). For morphological examinations the cells were seeded in a density of 1.5×10^4 cells/cm^2 in 24-well plates (Falcon, cell culture treated) with 1 mL medium. A stock solution of 10 mmol/L of the compound according to the invention 6-fluoro-9-methyl-β-carboline was prepared in 50% ethanol and sterile filtered. Five hours after seeding of the cells the compound according to the invention 6-fluoro-9-methyl-β-carboline was added in the corresponding amount to the medium achieving the desired final concentration. The medium was changed once a week. The cells were regularly microscopically examined. Microscopic images were taken at BZ Keyence 10 with a 10×lens and 4×digital zoom. An automatic contrast enhancement was made with the program BZ Analyzer.

Series [2] has as its system Lif (Leukemia inhibitory factor). The experiment in a line: Quantitative RT-PCR, relative gene expression of Lif in SH-SY5Y cells. The series is classed as cell-based, human. The conditions noted are these: 30 μM each. How it is done: (§1) SH-SY5Y cell lines, which were provided by the institute of human genetics of university hospital Eppendorf and which they in turn received from Braunschweig resource center, were used again for the RT-PCR experiments (reverse transcriptase polymerase chain reaction) carried out for this purpose.
(§2) The cells were incubated in MEM (Minimum essential medium, Life Technologies) with 10% FCS (fetal calf serum, Biochrom AG) and penicillin/streptomycin (Biochrom AG). The cells were seeded with a density of 1×10^5 cells/cm^2 in 25 cm^2 cell culture bottles (Falcon, cell culture treated) with 5 mL medium. Stock solutions of 10 mmol/L of compounds 9-methyl-β-carboline (AC-002 or 9MβC) and 6-fluoro-9-methyl-β-carboline (AC-102 or 6F9MβC), respectively were prepared in distillated water and sterile filtered. One day after the cell seeding the compounds were added in corresponding amounts (5-55 μL) to reach final concentration in the medium of 10 μM, 20 μM and 30 μM for 6F9MβC and 30 μM, 50 μM and 70 μM for 9MβC. The references received only the corresponding amount of solvent (distilled water). The medium was changed once a week.
(§3) The cells were regularly microscopically examined and harvest after 2, 7 and 14 days of incubation time, washed with PBS and immediately frozen at −80° C.
(§4) The RNA-isolation was done with the HighPure RNA Isolation kit of the company Roche. This isolation includes a DNaseI digestion. The concentration of RNA was measured with nanoDrop spectrometer and the RNA integrity was determined with the aid of the Bioanalyzer 2100 (Agilent). By using random hexamer primers, protector RNA inhibitor (Roche) and transcriptor reverse transcriptase (fermentas), 300 ng RNA were transcribed into cDNA per each sample.
(§5) After the reaction, this run was diluted 1:4 and thereof 2 μL per each quantitative RT-PCR were used. This was performed in a LightCycler 480 under standard conditions in the SybrGreen format with annealing temperatures determined for each primer individually. If possible, exon spanning primers were used.
(§6) The specificity was verified by melting curve analysis and subsequent gel electrophoresis. For each PCR the PCR efficiency and the Cq value was determined by the program LinRegPCR and these were used in further calculations. B2M (β2-microglobulin) was identified from multiple reference genes to be suitable for examination conditions. All results are results relative to the corresponding reference conditions, at which only solvent was administered for the specified period of time (i.e. 2 days, 7 days or 14 days). In FIGS. 5A to 5I are also relative gene expressions (relative to reference conditions) presented. Here, the 2-day exposition is presented in light grey, the 7-day exposition in dark grey and the 14-day exposition in black. Every measured value from FIGS. 5A-5I represents a mean value of 3 independent biologic samples.
(§7) Analogous to example 4 RT-PCR experiments with the inventive active agent 7-fluoro-9-methyl-β-carboline (7F9MβC) were also performed for some important cellular factors. The experimental procedure was here identical to the experiments with 6-fluoro-9-methyl-β-carboline and 9-methyl-β-carboline. Here the same (like for 6F9MβC) final concentrations of 30 μM, 50 μM and 70 μM 7F9MβC for the culture medium were employed. The examined factors were BDNF (brain-derived neurotrophic factor), Lif (Leukemia inhibitory factor), DRD2S (short variant of dopamine receptor subtype 2) as well as DKK1 (Dickkopf-related protein 1). The same primers, that were already listed for the respective target genes in example 4 (Tab. 1) were used. As already noted, especially BDNF and Lif belongs to the most important factors for cellurar repair processes after traumas in the inner ear.

Series [3] has as its system BTG2 (B-cell translocation gene 2). As to the kind of experiment: Quantitative RT-PCR, relative gene expression of BTG2 in SH-SY5Y cells. To be noted: 10 μM 6F9MβC, except after 2-day exposition. It counts as cell-based, human. As for the experimental part: as §1
The cells were incubated in MEM (Minimum essential medium, Life Technologies) with 10% FCS (fetal calf serum, Biochrom AG) and penicillin/streptomycin (Biochrom AG). The cells were seeded with a density of 1×10^5 cells/cm^2 in 25 cm^2 cell culture bottles (Falcon, cell culture treated) with 5 mL medium. […]
The RNA-isolation was done with the HighPure RNA Isolation kit of the company Roche. […] The concentration of RNA was measured with nanoDrop spectrometer and the RNA integrity was determined with the aid of the Bioanalyzer 2100 (Agilent). […]
After the reaction, this run was diluted 1:4 and thereof 2 μL per each quantitative RT-PCR were used. This was performed in a LightCycler 480 under standard conditions in the SybrGreen format with annealing temperatures determined for each primer individually. […]
The specificity was verified by melting curve analysis and subsequent gel electrophoresis. For each PCR the PCR efficiency and the Cq value was determined by the program LinRegPCR and these were used in further calculations. […]

Series [4] has as its system DRD2S (short variant of dopamine receptor subtype 2). The experiment in a line: Quantitative RT-PCR, relative gene expression of DRD2S in SH-SY5Y cells. The series is classed as cell-based, human. To be noted: 30 μM each. How it is done:
as §1, §2, §3, §4, §5, §6, §7

For series [5], the system named is DKK1 (Dickkopf-related protein 1). The experiment in a line: Quantitative RT-PCR, relative gene expression of DKK1 in SH-SY5Y cells. The series is classed as cell-based, human. How it is done: as §1, §2, §3, §4, §5, §6
as §7, with “The same primers, that were already listed for the respective target genes in example 4 (Tab. 1) were used. As already noted, especially BDNF and Lif belongs to the most important factors for cellurar repair processes after traumas in the inner ear.” left out

In series [6] the test system is CREB. The experiment in a line: Examination on cellular level: concentration of CREB. It counts as cell-based.
Series [7] has as its system BDNF (brain derived neurotrophic factor). As to the kind of experiment: Examination on cellular level: concentration of BDNF. It counts as cell-based.
Series [8] concerns learning behavior. The experiment in a line: Eight-armed labyrinth learning test. The series is classed as in vivo, rat. To be noted: rats, 2 mg/kg intraperitoneally daily, 2 hours before session; control group 14 days. As for the experimental part: In an eight-armed labyrinth the effect of 6F9MβC on the learning behavior was tested. 5 months old male rats were got used to the experimenter in daily sessions for 10 days. Afterwards, they were allowed to explore the labyrinth in multiple sessions for 2 days and they also learnt that they get a food reward there. Then the food was reduced until the body weight was reduced by 10% of the starting weight. Afterwards, at each end of the 8 arms of the labyrinth food was placed and a camera installed that recorded every movement of the animal. On the first test day the rat was placed without a prior injection on the platform in the center of the labyrinth. At the next day 2 mg/kg body weight 6-fluoro-9-methyl-β-carboline (6F9MβC) as free base dissolved in physiological sodium chloride solution was administered intraperitoneally to the rat by the experimenter. 2 hours later the animal was placed on the platform in the center of the labyrinth from where it had access to all arms. This procedure was repeated daily until the animal only did one mistake, i.e. went in an arm, which it had already entered before in the corresponding session. At the end of the session all 8 arms had to be visited.
12 rats, that were treated with 6F9MβC and a control group of 12 rats, that only got physiological sodium chloride solution, were examined. […]

For series [9] the following is noted: guinea pig, in vivo.
Procedure: For better evaluation of half times of 9-methyl-β-carboline (9MβC), 6-fluoro-9-methyl-β-carboline (6F9MβC) and 7-fluoro-9-methyl-β-carboline (7F9MβC) in animal organism and more precisely in perilymph (the notified site of action), experiments with guinea pigs were conducted. Therefore, the respective active agent (in total 1.4 mg active agent per ear), packed in 40 μl of a hydrogel (18% Poloxamer 407 and 0.6% alginate), was administered at once in front of the membrane of the round window of narcotized guinea pigs. […] After expiry of the desired time (20 min, 2 h, 8 h or 24 h), each time 5 μL perilymph were removed under anesthesia from the top of the cochlea (apex). Subsequently, the animal was killed. Per each time (20 min, 2 h, 8 h or 24 h) measured values were taken of at least ears and averaged.
The concentration of the corresponding active agent in perilymph samples was determined by high-performance liquid chromatography (HPLC, partly also named as high-pressure liquid chromatography) and measurement of auto fluorescence of the respective active agent. For HPLC the eluent consisted to 45% of 90% acetonitrile and to 55% of ammonium acetate (40 mM, pH<5). The flow rate was 0.4 mL/min and injection volume was 10 μL. Each sample was diluted with 60% methanol, if the signal was too strong. After each run the injection needle was washed with 100% isopropanol. The detection limit was 20 fmol/L.
From the determined active agent concentrations the elimination half times were then calculated.
Series [10] can be described thus: physchem. To be noted: water.
Procedure: Furthermore, the solubility of both compounds in water was determined by preparing concentration series of both compounds in water at room temperature. The concentration at which the compound was barely soluble was determined by external calibration. The corresponding concentration was quantified by HPLC.

SMILES strings stand for the structures. Converted amounts (≈) assume the structure as drawn.

One may read the solubility as how much of the substance goes into solution per volume. A lower solubility goes with a poorly soluble substance. Take `Cn1c2ccc(F)cc2c2ccncc21` [6F9MβC, 6-fluoro-9-methyl-β-carboline]: the “concentration at which a comparable differentiation of the tested cells is observed” value in [1] (15 days incubation) was determined as 30 µM. Further, the “effect on proliferation and morphology of cells” value in [1] (15 days, increasing concentrations, pronounced at 30 μM vs 0 μM) is “inhibits proliferation of cells and induces sprouting of slim extensions as well as a change in size and shape of the cells”. For the same compound, the figures for the “Lif expression relative to expression induced by 9MβC” value in series [2] (2-day exposition), in [2] (7-day exposition) and in [2] (14-day exposition) were “approximately three times as high”, “slightly lower” and “approximately twice as high”, respectively. In addition, in [3], the “BTG2 expression compared to the highest concentration of 9MβC” value was “comparable”. In addition, the “DRD2S expression relative to expression induced by 9MβC” value is “higher” in [4] (2-day exposition), “lower” in [4] (7-day exposition) and “higher” in series [4] (14-day exposition). Moreover, the “DKK1 expression compared to the highest concentration of 9MβC” value in series [5] (10 μM 6F9MβC) is recorded as “comparable or even higher”. In addition, the “DKK1 expression relative to expression induced by 9MβC” value in series [5] (30 μM each, 14-day exposition) was “comparable”. For the same compound, the “increase of the concentration of CREB (factor)” value in series [6] is reported as 8. Besides, in [7], the “increase of the concentration of BDNF” value is reported as “up to three times”. Moreover, the “time until the criteria (only one mistake) were reached” value in series [8] was determined as 6 days. Further, the elimination half time result in series [9] is “approximately 6.0 h”. This compound also displayed a solubility in [10] of 29.7 µg/mL (≈ 148 µM).
